Laboratory results as given in patent US20180028498A1, “A PHARMACEUTICAL COMPOSITION FOR THE PARENTERAL ADMINISTRATION OF MELATONIN, AND A PROCESS FOR ITS PREPARATION” (INDUSTRIA FARMACEUTICA GALENICA SENESE S.R.L., priority 2015, published 2018).

Columns and labels:
[1] = Solubility / maximum concentration of melatonin in solvent; type: physicochemical; conditions: physiological saline solution, no excipients, co-solvents or diluents
Text: There are moreover disclosed in the literature injectable formulations of melatonin, that are in general solutions of melatonin in ethanol or in propylene glycol, then diluted with water. As a matter of fact, melatonin is known to be a substance that dissolves in aqueous media with great difficulties.
The present pharmaceutical compositions in the form of an aqueous solution, thanks to the process of preparation of the invention described in detail in the following, may contain, dissolved in aqueous solution, amounts of melatonin that are relatively high and suitable for the dosages required in medical treatments; the concentration of melatonin in the present compositions is indeed comprised between 0.2 and 0.4 mg/ml, this latter being the maximum value of concentration obtained for the melatonin in the present aqueous compositions, in the absence of any excipients, co-solvents or diluents different from the physiological saline solution.
A pharmaceutical dissolver of suitable size was deaerated by insufflation of filtered nitrogen, then the dissolver was charged with water for injections at 85° C., to fill approximately 80% of the inner volume of the dissolver. After cooling water at 50° C., sodium chloride was added in such amount as to obtain a final concentration of 9mg/ml; the so obtained solution was deaerated by bubbling filtered nitrogen. […]

[2] = cited from earlier work
[3] = test system: free radicals (pro-inflammatory cytokines); conditions: ventilated infants with bronchopulmonary dysplasia; cited from earlier work
chronic lung disease = conditions: infants; cited from earlier work
pain = conditions: in combination with other drugs, endotracheal intubation in infants; cited from earlier work

maximum value of concentration obtained in aqueous composition [1]: 0.4 mg/mL
SMILES: COc1ccc2[nH]cc(CCNC(C)=O)c2c1 [melatonin, N-acetyl-5-methoxytriptamine]
solubility in ethanol ([2]; ethanol): fairly good solubility
solubility in water ([2]; water): close to zero
reduction of production of free radicals (pro-inflammatory cytokines) [3]: effective in reducing the production of these molecules
efficacy in chronic lung disease (chronic lung disease): same efficacy has been demonstrated
efficacy as an analgesic (pain): demonstrated the efficacy
